By IC50 is commonly meant the concentration needed to halve the response being measured. The term AC50 denotes the midpoint of the concentration-response curve, whichever way the signal moves. The EC50 is the concentration giving half of the maximal effect. A high value points to a less potent agent.

These results are taken from ChEMBL document CHEMBL1201862, “PubChem BioAssay data set” (2004).

Calls of active or inactive are those of the source.

Assay [1] deals with Genome polyprotein (dengue virus type 2, UniProt P29990). The experiment in a line: flavivirus cap methylation enzyme inhibition – biochemical, confirmation dose response, primary screen (AID 588689). The format is functional.
In assay [2] the target is Caspase-8 (Homo sapiens, UniProt Q14790). The experiment in a line: inhibitors of purified CASP8 protease – biochemical, Z-IETD-R110 fluorescence, cherry-picked samples, selectivity assay for caspase-6 inhibitor project, dose response (AID 743294).
Assay [3] has as its target T1, Caspase-6 (Homo sapiens, UniProt P55212).
T1 sequence (P55212 whole entry): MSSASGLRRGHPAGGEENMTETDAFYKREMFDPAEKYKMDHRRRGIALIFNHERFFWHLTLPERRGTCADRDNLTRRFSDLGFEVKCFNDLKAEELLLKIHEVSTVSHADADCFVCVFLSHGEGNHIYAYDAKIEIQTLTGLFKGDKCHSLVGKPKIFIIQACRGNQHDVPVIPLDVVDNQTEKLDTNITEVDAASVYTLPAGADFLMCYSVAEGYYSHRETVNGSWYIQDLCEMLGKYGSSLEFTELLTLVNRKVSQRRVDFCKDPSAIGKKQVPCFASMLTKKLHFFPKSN
Nature of the assay: inhibition of CASP6 peptide cleavage – biochemical, VEID-R110 fluorescence, cherry-pick, dose response (AID 720632).

Assay [4] addresses T2, Histone-lysine N-methyltransferase NSD2 (Homo sapiens, UniProt O96028).
T2 sequence (O96028 whole entry): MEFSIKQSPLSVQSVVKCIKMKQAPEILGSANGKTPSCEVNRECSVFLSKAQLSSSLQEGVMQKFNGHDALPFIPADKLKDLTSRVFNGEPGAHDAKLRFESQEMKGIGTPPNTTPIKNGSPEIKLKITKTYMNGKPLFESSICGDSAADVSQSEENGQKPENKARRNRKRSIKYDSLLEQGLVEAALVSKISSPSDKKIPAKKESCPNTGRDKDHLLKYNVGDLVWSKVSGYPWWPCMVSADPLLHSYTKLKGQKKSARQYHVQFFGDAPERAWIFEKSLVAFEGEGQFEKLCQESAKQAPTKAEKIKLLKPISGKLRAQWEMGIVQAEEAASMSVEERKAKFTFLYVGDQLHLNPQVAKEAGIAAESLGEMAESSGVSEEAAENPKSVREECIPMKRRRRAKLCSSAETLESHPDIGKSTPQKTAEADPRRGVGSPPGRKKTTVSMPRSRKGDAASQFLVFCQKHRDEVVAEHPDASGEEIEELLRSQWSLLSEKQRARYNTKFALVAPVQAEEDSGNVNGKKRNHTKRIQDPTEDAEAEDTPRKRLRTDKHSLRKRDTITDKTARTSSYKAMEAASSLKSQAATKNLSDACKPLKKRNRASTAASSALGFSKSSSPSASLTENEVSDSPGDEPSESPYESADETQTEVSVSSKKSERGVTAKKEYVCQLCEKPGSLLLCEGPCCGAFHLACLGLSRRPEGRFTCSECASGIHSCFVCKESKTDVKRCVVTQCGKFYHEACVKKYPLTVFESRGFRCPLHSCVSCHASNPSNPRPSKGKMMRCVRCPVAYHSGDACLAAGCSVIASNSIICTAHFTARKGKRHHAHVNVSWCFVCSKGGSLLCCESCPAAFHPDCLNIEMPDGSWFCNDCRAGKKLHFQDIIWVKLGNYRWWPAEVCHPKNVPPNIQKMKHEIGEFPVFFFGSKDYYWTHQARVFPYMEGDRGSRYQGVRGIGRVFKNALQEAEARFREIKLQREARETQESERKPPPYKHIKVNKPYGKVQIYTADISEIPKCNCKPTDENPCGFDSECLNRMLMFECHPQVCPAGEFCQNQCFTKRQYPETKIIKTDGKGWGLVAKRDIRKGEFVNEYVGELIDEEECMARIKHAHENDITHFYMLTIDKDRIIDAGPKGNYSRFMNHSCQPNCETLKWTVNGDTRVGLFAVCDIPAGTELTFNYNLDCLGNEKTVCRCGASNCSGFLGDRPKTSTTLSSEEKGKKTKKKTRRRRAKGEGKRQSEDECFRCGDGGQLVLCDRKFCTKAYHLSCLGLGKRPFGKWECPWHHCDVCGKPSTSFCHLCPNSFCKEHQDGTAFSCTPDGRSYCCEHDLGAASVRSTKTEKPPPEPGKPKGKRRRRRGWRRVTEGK
The format is biochemical.

Assay [5] concerns the target T3, Streptokinase A (Streptococcus pyogenes serotype M1, UniProt P10520).
T3 sequence (P10520 whole entry): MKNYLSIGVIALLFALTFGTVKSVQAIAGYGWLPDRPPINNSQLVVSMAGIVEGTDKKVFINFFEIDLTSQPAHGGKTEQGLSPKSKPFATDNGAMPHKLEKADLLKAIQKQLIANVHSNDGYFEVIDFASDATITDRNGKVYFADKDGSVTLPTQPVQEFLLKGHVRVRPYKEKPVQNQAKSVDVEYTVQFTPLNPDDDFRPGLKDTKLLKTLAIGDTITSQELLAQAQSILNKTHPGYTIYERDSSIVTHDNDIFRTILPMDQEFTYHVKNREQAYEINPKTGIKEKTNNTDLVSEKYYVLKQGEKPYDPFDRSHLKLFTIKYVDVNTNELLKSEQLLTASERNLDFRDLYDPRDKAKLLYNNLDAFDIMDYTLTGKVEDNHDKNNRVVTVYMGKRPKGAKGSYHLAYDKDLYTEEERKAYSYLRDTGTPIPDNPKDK
The experiment in a line: viability-normalized secreted streptokinase activity reduction – plasminogen activation absorbance, OD405, dose response (AID 1914).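 Note: secreted streptokinase activity via plasminogen activation per viability signal from cell pellet.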 The format is functional, Streptococcus pyogenes M1 GAS.

Assay [6] can be described thus: HEK-293T viability loss, compound-treated – cell-based, uHTS hits, cytotoxicity control for B/T-cell NF-kB inhibitor project, dose response (AID 489019).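 Note: IC50 reflects cytotoxicity as loss of cell viability.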 Format: functional.
Assay [7] has as its target T4, Bcl-2-related protein A1 (Mus musculus, UniProt Q07440).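 Note: confirmatory dose–response counterscreen on Bfl-1, used to check hits from a UBC13 polyubiquitin inhibitor campaign.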
T4 sequence (Q07440 whole entry): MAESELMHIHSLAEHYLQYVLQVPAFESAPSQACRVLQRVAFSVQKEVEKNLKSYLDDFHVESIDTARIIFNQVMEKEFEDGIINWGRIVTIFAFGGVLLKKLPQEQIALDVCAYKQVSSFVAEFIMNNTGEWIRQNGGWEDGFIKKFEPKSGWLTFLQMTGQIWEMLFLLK
Format: functional.

Assay [8] can be described thus: off-target signal loss in HeLa-CEM21 co-culture – HeLa F-luc CTL cells, cherry-picked, counter-screen for HIV-1 Env fusion inhibitor project, dose response (AID 652040).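 Note: potency for signal decrease marking cytotoxic or nonspecific inhibition.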 The format is functional, cell-based. (In general: The purpose of a counterscreen is to sort out artefacts and off-target activity.)

Sequence of Genome polyprotein (P29990 2492-3391 limits assumed): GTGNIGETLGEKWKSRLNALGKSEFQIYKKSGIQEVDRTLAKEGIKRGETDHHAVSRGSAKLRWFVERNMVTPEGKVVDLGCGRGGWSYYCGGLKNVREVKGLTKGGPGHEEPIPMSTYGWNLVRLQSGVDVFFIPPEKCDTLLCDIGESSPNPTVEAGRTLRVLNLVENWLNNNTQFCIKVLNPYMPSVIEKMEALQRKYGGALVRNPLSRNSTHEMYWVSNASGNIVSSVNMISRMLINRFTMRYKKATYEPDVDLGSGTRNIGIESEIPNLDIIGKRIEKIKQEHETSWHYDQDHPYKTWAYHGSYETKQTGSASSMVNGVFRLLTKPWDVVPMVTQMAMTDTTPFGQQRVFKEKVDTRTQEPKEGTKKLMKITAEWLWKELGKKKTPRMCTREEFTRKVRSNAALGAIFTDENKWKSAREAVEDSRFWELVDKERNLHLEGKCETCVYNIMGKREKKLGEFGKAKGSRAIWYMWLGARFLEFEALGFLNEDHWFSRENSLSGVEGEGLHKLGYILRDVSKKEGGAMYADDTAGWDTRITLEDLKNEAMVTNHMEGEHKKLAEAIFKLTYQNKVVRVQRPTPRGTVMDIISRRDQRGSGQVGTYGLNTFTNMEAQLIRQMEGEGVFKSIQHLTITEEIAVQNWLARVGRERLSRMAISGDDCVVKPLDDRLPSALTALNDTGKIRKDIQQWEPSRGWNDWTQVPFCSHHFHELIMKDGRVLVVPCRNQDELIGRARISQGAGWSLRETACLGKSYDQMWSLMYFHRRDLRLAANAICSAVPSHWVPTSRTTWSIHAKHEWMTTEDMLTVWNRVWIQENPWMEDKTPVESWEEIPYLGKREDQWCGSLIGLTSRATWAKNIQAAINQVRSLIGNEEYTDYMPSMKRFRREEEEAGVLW
Sequence of Caspase-8 (Q14790 217-374 limits assumed): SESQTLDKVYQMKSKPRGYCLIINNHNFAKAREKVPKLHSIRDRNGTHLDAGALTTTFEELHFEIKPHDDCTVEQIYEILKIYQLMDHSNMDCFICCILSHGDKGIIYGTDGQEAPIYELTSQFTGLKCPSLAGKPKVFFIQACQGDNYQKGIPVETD
Sequence of Caspase-8 (Q14790 385-479 limits assumed): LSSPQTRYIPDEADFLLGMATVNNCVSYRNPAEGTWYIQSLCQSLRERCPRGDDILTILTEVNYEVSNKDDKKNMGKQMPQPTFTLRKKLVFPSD

As for `O=c1ccc2c(-c3ccccc3S(=O)(=O)O)c3ccc(O)c(O)c3oc-2c1O` [PYROGALLOL RED], the IC50 in assay [1] was 4.06 µM (active). Besides, the AC50 in assay [2] was > 70 µM (inactive); in assay [3], 0.192 µM (active); in assay [4], 0.146 µM (active).
With `CCCCCCCCCCOC(=O)C[n+]1c(COc2ccccc2OC)n(C)c2ccccc21`, the 50% effective concentration (EC50) in assay [5] is on record as > 150 µM (not active). Moreover, the values for the IC50 in assay [6] and in assay [7] were 54.4 µM (inactive) and 18.4 µM (active), respectively. In assay [8], the AC50 was 12.3 µM (active).
